Marks after values point to notes of the source that are not given here.
Assays:
[1] = tested on: acute promyelocytic leukemia (APL); conditions: cited from earlier work
[2] = tested on: PML/RARA; assay: Molecular monitoring of PML/RARA (PCR) in Example 2; type: in vivo, human patients
Experimental: Twelve consecutive unselected patients with relapsed APL were treated with oral-As2O3 (see Table 4). The relapse was confirmed morphologically (>30% blasts+abnormal promyelocytes in the marrow) and cytogenetically (presence of t(15;17), with none of the cases showing additional karyotyic aberrations) or molecularly (presence of PML/RARA). The treatment was given with informed consent, and the protocol was approved by the University of Hong Kong Faculty of Medicine Ethics Committee.
However, PML/RARA became negative in 11 cases 3-6 months post-remission, and remained negative until the latest bone marrow examination. PCR in patient no. 1 became positive shortly before R2.

[3] = Arsenic in plasma and cellular fraction of blood at 48 hours; type: in vivo, human patients
Experimental: (§1) Venous blood samples were drawn (11 ml) prior to As2O3 administration on day-1 and subsequently at the following times after the beginning of the IV infusion: 1, 2, 3, 4, 6, 8, 24, 25, 26, 27, 28, 30, 32 and 48 hours. Five ml from each sample were collected in a non-gel lithium-heparin tube (for determination of plasma arsenic level) and 3 ml×2 in EDTA tubes (for determination of whole blood level). The plasma from the lithium-heparin tube was freshly separated and both the plasma and whole blood samples were stored at 4° C. and subsequently analyzed in batches.
Plasma and whole blood arsenic concentration were assayed after the samples were deproteinized with 3% (w/v) trichloroacetic acid and then mixed with matrix modifiers. The matrix modifiers contained magnesium nitrate (10 g/L), palladium chloride (6 g/L), and ammonium sulphite (20 g/L) in 0.5% Triton X 100. All chemicals were of analytical grade and were obtained from Sigma (St Louis, Mo.). The treated samples were assayed for total arsenic concentration in whole blood and plasma (which includes As2O3 per se and its metabolites) by graphite furnace atomic absorption spectrophotometry (Simma 6000, Perkin-Elmer, Norwalk, Conn.). Concentrations are therefore expressed as nmol/L of arsenic above basal values. The between-day coefficient of variation of this method was 7.5-9.6% for arsenic concentrations varying from 559 to 2169 nmol/L. The accuracy of this method was assessed by spiking known amounts of arsenic into patient samples; recovery being 97.3-101.3% for concentrations varying from 301 to 678 nmol/L.
The concentration of arsenic in the cellular fraction of blood (Cc) at 48 hours after the initial intravenous dose was calculated from the corresponding plasma (Cp) and whole blood (Cb) concentrations and the prevailing hematocrit (Hct) value as follows:
Nano mols of arsenic in the plasma from 1 liter of blood=Cp(1-Hct).
Accordingly, the mass of arsenic in the remaining cellular fraction in 1 liter of blood amounts to Cb-[Cp(1-Hct)].
Thus, the concentration (weight/volume) of arsenic per liter of the cellular fraction of the blood Cc={Cb-[Cp(1-Hct)]}/Hct.

[4] = As2O3 powder; cited from earlier work
[5] = Safety monitoring in Example 1 (ECG, complications); type: in vivo, human patients
Experimental: Demographic features as well as details pertaining to each patient's disease state (including laboratory findings) were recorded throughout the period of study. Their subsequent clinical progress and pertinent laboratory results were also logged. The University of Hong Kong Faculty of Medicine Ethics Committee approved the entire protocol.
The demographic features, basal arsenic concentrations, disease status, and treatment outcomes of each patient are shown in Table 2.

[6] = Oral arsenic bioavailability: plasma and whole blood arsenic AUC after IV (day 1) and oral (day 2) As2O3; type: in vivo, human patients
Experimental: As diets containing seafood contain arsenic, each patient was instructed to refrain from seafood, preferably for at least one week before arsenic administration. On day-1 at 10 A.M., 10 mg of a standard, commercially available IV As2O3 formulation (from Ophthalmic Laboratories, Sydney, Australia) diluted in 100 ml of Sodium Chloride 0.9% solution was infused IV over 60 minutes. At 10 A.M. on day-2 (i.e., 24 hours after the start of the IV infusion), each patient swallowed a 10 mg dose (10 ml) of our oral AS2O3 solution and none were instructed to fast before or during their treatment.
as §1, with “Five ml from each sample were collected in a non-gel lithium-heparin tube (for determination of plasma arsenic level) and 3 ml×2 in EDTA tubes (for determination of whole blood level).” left out
Plasma and whole blood arsenic concentration were assayed after the samples were deproteinized with 3% (w/v) trichloroacetic acid and then mixed with matrix modifiers. […] Concentrations are therefore expressed as nmol/L of arsenic above basal values. […]

Row | Compound | efficacy in APL ([1]; oral, Lu et al. Blood 2002) | cases in which PML/RARA became negative ([2]; 3-6 months post-remission, of 12 patients) [cases] | PML/RARA after As2O3-induced CR ([2]; all patients) | Cellular Conc (Cc), Mean ([3]; 48 hours, mean of 9 patients) [nM/L] | Plasma Conc (Cp), Mean ([3]; 48 hours, mean of 9 patients) [nM/L] | Difference, Mean ([3]; 48 hours, mean of 9 patients, p = 0.013 two tailed paired t-test) | 48-hour concentrations in the cellular fraction of blood higher than corresponding plasma concentrations ([3]; except in patient no 1) [fold] | 48-hour blood cell arsenic levels greater than in plasma ([3]; on average, p=0.013) [%] | remissions induced in APL patients ([1]; literature (Shen 1997, Soignet 1998, Niu 1999)) | solubility in cold water [4] | abnormal QTc prolongation on regularly performed ECGs ([5]; all nine patients receiving As2O3) | unexpected complications ([5]; nine patients) | inter-individual variation in plasma AUCs among the nine patients ([6]; plasma) [fold] | inter-individual variation in whole blood AUCs among the nine patients ([6]; whole blood) [fold]
1 | S1[As]2S[As]3S[As]2S[As]13 [tetra-arsenic tetra-sulphide] | highly efficacious in APL |  |  |  |  |  |  |  |  |  |  |  |  | 
2 | arsenic trioxide [As2O3] |  | 11 | remained positive in all patients | 286 | 85 | 201* nM/L | 2 to 3 | 270 | over 90% | sparingly and extremely slowly soluble | no instance of abnormal QTc prolongation | No patient suffered unexpected complications | ≤ 5 | ≤ 10

Source: patent US7521071B2, “Formulation of oral compositions comprising arsenic trioxide and methods of use thereof” (Versitech Limited, priority 2002, dated 2009)
